Holding throughout (type): functional, cell-based
Data set [1] concerns the target T1, Multidrug resistance-associated protein 1 (Mus musculus, UniProt O35379). In words: TP_TRANSPORTER: drug resistance in Mrp1-expressing HEK293 cells. To be noted: human.
Data set [2] deals with T2, Multidrug resistance-associated protein 1 (Homo sapiens, UniProt P33527). In words: TP_TRANSPORTER: drug resistance in MRP1-expressing HEK293 cells.
The target of data set [3] is T1, Multidrug resistance-associated protein 1. Description: TP_TRANSPORTER: efflux in Mrp1-expressing HEK293 cells. As to conditions: human.
For data set [4], the target named is T2, Multidrug resistance-associated protein 1. Description: TP_TRANSPORTER: efflux in MRP1-expressing HEK293 cells.

“Also recorded” adds a separate entry of the source.

T2 sequence (P33527 whole entry): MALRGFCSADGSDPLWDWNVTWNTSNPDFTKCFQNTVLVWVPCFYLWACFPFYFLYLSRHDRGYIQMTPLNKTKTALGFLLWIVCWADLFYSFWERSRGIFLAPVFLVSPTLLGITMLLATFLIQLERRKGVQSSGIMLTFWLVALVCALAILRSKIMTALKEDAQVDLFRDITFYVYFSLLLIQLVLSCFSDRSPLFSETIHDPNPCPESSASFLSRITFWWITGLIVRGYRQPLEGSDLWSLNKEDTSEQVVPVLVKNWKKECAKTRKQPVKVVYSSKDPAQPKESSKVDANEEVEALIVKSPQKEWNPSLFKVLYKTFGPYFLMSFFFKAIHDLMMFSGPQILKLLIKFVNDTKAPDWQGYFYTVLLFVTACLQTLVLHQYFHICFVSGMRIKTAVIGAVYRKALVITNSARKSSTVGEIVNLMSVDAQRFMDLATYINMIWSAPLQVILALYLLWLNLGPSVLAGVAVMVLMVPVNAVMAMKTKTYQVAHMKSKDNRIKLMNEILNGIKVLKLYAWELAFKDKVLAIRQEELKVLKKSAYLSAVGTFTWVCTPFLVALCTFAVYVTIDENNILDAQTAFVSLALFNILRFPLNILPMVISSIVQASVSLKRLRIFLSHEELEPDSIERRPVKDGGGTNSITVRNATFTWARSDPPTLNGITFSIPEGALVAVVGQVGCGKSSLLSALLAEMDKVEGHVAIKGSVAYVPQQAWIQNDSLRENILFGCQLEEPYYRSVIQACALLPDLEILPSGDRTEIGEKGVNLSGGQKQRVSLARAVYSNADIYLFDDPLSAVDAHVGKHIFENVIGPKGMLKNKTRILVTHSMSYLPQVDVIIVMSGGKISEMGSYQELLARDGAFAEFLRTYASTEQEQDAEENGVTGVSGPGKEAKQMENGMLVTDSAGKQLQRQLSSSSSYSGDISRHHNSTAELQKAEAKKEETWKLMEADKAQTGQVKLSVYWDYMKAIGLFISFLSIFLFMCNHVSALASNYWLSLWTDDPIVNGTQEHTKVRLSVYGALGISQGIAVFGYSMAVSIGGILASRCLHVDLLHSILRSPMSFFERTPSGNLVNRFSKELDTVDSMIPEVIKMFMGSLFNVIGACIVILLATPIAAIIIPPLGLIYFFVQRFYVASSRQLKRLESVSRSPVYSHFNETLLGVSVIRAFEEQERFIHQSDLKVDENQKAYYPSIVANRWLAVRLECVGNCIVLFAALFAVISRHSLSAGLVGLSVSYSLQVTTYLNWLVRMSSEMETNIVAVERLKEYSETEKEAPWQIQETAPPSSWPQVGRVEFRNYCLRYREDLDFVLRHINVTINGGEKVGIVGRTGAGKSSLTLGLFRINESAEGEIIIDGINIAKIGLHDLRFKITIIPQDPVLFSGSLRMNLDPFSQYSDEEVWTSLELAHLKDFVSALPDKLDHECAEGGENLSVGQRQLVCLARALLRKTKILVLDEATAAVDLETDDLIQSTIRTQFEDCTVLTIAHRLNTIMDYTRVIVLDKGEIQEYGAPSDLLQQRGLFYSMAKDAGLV
T1 sequence (O35379 whole entry): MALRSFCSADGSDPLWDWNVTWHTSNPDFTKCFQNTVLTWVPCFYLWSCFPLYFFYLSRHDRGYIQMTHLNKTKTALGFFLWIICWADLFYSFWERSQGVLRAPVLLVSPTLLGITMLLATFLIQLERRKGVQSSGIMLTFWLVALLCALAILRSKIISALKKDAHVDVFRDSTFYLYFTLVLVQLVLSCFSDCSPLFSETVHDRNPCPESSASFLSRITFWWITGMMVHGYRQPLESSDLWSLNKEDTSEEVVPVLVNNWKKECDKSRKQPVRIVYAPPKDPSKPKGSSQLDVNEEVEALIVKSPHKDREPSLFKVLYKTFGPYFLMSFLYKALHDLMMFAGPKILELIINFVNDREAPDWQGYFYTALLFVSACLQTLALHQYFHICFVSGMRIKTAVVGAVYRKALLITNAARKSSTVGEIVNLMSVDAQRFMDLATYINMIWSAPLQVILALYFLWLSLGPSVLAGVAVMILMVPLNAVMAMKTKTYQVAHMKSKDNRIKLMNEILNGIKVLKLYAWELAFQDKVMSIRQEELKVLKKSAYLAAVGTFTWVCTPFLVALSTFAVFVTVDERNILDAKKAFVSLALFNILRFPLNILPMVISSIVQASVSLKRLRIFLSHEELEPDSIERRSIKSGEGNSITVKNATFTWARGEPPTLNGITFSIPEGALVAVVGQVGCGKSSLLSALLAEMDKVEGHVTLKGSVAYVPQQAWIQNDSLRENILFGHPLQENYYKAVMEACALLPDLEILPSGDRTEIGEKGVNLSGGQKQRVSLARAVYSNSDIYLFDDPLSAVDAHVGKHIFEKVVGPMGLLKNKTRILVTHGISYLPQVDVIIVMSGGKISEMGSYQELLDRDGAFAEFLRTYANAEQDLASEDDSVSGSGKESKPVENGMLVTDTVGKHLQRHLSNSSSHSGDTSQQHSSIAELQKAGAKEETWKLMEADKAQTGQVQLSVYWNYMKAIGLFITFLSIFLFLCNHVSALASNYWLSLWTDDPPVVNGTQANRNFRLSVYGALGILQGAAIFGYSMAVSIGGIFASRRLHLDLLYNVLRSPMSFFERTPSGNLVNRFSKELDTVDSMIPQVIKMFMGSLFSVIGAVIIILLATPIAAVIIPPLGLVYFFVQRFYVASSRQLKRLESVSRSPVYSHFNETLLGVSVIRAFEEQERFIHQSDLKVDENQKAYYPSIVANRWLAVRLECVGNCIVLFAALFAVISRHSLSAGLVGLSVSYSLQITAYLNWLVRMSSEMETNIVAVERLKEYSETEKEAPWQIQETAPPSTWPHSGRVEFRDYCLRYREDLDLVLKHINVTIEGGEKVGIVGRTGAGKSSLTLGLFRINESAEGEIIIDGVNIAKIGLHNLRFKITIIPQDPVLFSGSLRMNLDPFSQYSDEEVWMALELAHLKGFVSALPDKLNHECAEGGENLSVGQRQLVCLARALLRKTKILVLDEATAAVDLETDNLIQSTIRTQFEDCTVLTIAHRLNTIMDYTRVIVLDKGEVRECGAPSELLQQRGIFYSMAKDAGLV

As to `COc1cc2c(c(OC)c1OC)-c1ccc(OC)c(=O)cc1[C@@H](NC(C)=O)CC2` [COLCHICINE], the Activity result in data set [1] is “substrate [+]; also recorded: is not a substrate [-]”. For the molecule `COc1cccc2c1C(=O)c1c(O)c3c(c(O)c1C2=O)C[C@@](O)(C(=O)CO)C[C@@H]3O[C@H]1C[C@H](N)[C@H](O)[C@H](C)O1` [DOXORUBICIN], the Activity result in data set [2] is “substrate [+]”; in data set [1], “is not a substrate [-]”. For `COc1cccc2c1C(=O)c1c(O)c3c(c(O)c1C2=O)C[C@@](O)(C(=O)CO)C[C@@H]3O[C@H]1C[C@H](N)[C@@H](O)[C@H](C)O1` [EPIRUBICIN] the same measures were “substrate [+]” and “is not a substrate [-]”. For the molecule `COc1cc([C@@H]2c3cc4c(cc3[C@@H](O[C@@H]3O[C@@H]5CO[C@@H](C)O[C@H]5[C@H](O)[C@H]3O)[C@H]3COC(=O)[C@H]23)OCO4)cc(OC)c1O` [ETOPOSIDE], the Activity entry in data set [3] and in data set [4] was “substrate [+]” in each case. In the case of `CC[C@]1(O)C[C@H]2CN(CCc3c([nH]c4ccccc34)[C@@](C(=O)OC)(c3cc4c(cc3OC)N(C=O)[C@H]3[C@@](O)(C(=O)OC)[C@H](OC(C)=O)[C@]5(CC)C=CCN6CC[C@]43[C@@H]65)C2)C1` [VINCRISTINE], the Activity entry in data set [3] is “substrate [+]”.

For the origin of these results see ChEMBL document CHEMBL2073844, “Pharmacological characterization of the murine and human orthologs of multidrug-resistance protein in transfected human embryonic kidney cells” (Mol Pharmacol, 1997).
